In patent publication US4684664A, “Derivatives of β-(4-isocyano-1,2,3,4-diepoxycyclopentyl) acrylic acid” (Kureha Kagaku Kogyo Kabushiki Kaisha, priority 1984, dated 1987):
Converted amounts (≈) assume the structure as drawn.

Legend:
Assay type in all cases: cell-based
[1] = tested on: Staphylococcus aureus Terajima; assay: Antibacterial activity, agar-dilution MIC, organism No. 2; conditions: Staphylococcus aureus; Organism No. 2, bouillon-agar; read-out: Minimum Inhibitory Concentration
In short: (§1)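 Agar dilution, bouillon-agar plates; MIC reported in μg/ml of medium.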

[2] = tested on: Escherichia coli NIHJ-JC-2; assay: Antibacterial activity, agar-dilution MIC, organism No. 5; conditions: Escherichia coli, NIHJJC2; Organism No. 5, bouillon-agar; read-out: Minimum Inhibitory Concentration
In short: as §1

[3] = tested on: Klebsiella pneumoniae PCI-602; assay: Antibacterial activity, agar-dilution MIC, organism No. 7; conditions: Klebsiella pneumoniae, PCI602; Organism No. 7, bouillon-agar; read-out: Minimum Inhibitory Concentration
In short: as §1

[4] = tested on: Mycoplasma pneumoniae IID817; assay: Antimycoplasmal activity, MIC by phenol red colour change, organism No. 28; conditions: Mycoplasma, IID817; Organism No. 28, PPLO broth + 1% glucose, 37° C.; read-out: Minimum Inhibitory Concentration (MIC)
Method: Mycoplasma pneumoniae IID817 was used as the test microorganism in a culture medium prepared by adding 1% of glucose to "PPLO broth (manufactured by Difco Co.) liquid culture medium" at 37° C. with phenol red as an indicator, thereby culturing the test microorganism.

[5] = tested on: Enterobacter aerogenes ATCC 13048; assay: Antibacterial activity, agar-dilution MIC, organism No. 23; conditions: Klebsiella aerogenes, ATCC13048; Organism No. 23, bouillon-agar; read-out: Minimum Inhibitory Concentration
In short: as §1

[6] = tested on: Salmonella typhimurium IID 971; assay: Antibacterial activity, agar-dilution MIC, organism No. 8; conditions: Salmonella enterica; Organism No. 8, bouillon-agar; read-out: Minimum Inhibitory Concentration
In short: as §1

[7] = tested on: Streptococcus pyogenes Cook; assay: Antibacterial activity, agar-dilution MIC, organism No. 4; conditions: Streptococcus pyogenes; Organism No. 4, bouillon-agar; read-out: Minimum Inhibitory Concentration
In short: as §1

[8] = tested on: Staphylococcus aureus MS 353; assay: Antibacterial activity, agar-dilution MIC, organism No. 3; conditions: Staphylococcus aureus, MS353; Organism No. 3, bouillon-agar; read-out: Minimum Inhibitory Concentration
In short: as §1

[9] = tested on: Pseudomonas aeruginosa PAO 1; assay: Antibacterial activity, agar-dilution MIC, organism No. 17; conditions: Pseudomonas aeruginosa, PAO1; Organism No. 17, bouillon-agar; read-out: Minimum Inhibitory Concentration
In short: as §1

Proteus vulgaris HX-19 = assay: Antibacterial activity, agar-dilution MIC, organism No. 21; conditions: Proteus vulgaris, HX19; Organism No. 21, bouillon-agar; read-out: Minimum Inhibitory Concentration
In short: as §1

[10] = tested on: Salmonella enteritidis G 14; assay: Antibacterial activity, agar-dilution MIC, organism No. 12; conditions: Salmonella enterica, ENTERITIDIS; Organism No. 12, bouillon-agar; read-out: Minimum Inhibitory Concentration
In short: as §1

[11] = tested on: Pseudomonas aeruginosa NCTC 10490; assay: Antibacterial activity, agar-dilution MIC, organism No. 16; conditions: Pseudomonas aeruginosa, NCTC10490; Organism No. 16, bouillon-agar; read-out: Minimum Inhibitory Concentration
In short: as §1

Enterobacter cloacae 963 = assay: Antibacterial activity, agar-dilution MIC, organism No. 24; conditions: Enterobacter cloacae, 963; Organism No. 24, bouillon-agar; read-out: Minimum Inhibitory Concentration
In short: as §1

Salmonella typhi 901 = assay: Antibacterial activity, agar-dilution MIC, organism No. 9; conditions: Salmonella enterica, TYPHI, read-out: Minimum Inhibitory Concentration
In short: as §1

[12] = tested on: Proteus morganii IFO 3848; assay: Antibacterial activity, agar-dilution MIC, organism No. 18; conditions: Morganella morganii, IFO3848; Organism No. 18, bouillon-agar; read-out: Minimum Inhibitory Concentration
In short: as §1

[13] = tested on: Micrococcus luteus ATCC 9341; assay: Antibacterial activity, agar-dilution MIC, organism No. 25; conditions: Micrococcus luteus, ATCC9341; Organism No. 25, bouillon-agar; read-out: Minimum Inhibitory Concentration
In short: as §1

[14] = tested on: Pseudomonas aeruginosa IFO 3445; assay: Antibacterial activity, agar-dilution MIC, organism No. 15; conditions: Pseudomonas aeruginosa, IFO3445; Organism No. 15, bouillon-agar; read-out: Minimum Inhibitory Concentration
In short: as §1

[15] = tested on: Streptococcus pyogenes IFO 3340; assay: Antibacterial activity, agar-dilution MIC, organism No. 26; conditions: Streptococcus pyogenes, IFO3340; Organism No. 26, bouillon-agar; read-out: Minimum Inhibitory Concentration
In short: as §1

Proteus vulgaris OX-19 = assay: Antibacterial activity, agar-dilution MIC, organism No. 20; conditions: Proteus vulgaris, OX19; Organism No. 20, bouillon-agar; read-out: Minimum Inhibitory Concentration
In short: as §1

[16] = tested on: Staphylococcus aureus FDA 209PJc-1; assay: Antibacterial activity, agar-dilution MIC, organism No. 1; conditions: Staphylococcus aureus, FDA209PJC1; Organism No. 1, bouillon-agar; read-out: Minimum Inhibitory Concentration
In short: as §1

[17] = tested on: Aspergillus niger IFO 6342; assay: Antifungal activity, agar-dilution MIC, organism No. 30; conditions: Aspergillus niger, IFO6342; Organism No. 30, bouillon-agar; read-out: Minimum Inhibitory Concentration
In short: as §1

[18] = tested on: Candida albicans IAM 4905; assay: Antifungal activity, agar-dilution MIC, organism No. 29; conditions: Candida albicans, IAM4905; Organism No. 29, bouillon-agar; read-out: Minimum Inhibitory Concentration
In short: as §1

[19] = tested on: Escherichia coli K12 C600 IAM 1264; assay: Antibacterial activity, agar-dilution MIC, organism No. 6; conditions: Escherichia coli, IAM1264; Organism No. 6, bouillon-agar; read-out: Minimum Inhibitory Concentration
In short: as §1

[20] = tested on: Salmonella paratyphi-A 1015; assay: Antibacterial activity, agar-dilution MIC, organism No. 10; conditions: Salmonella enterica, PARATYPHI, read-out: Minimum Inhibitory Concentration
In short: as §1

[21] = tested on: Streptococcus faecium IFO 3826; assay: Antibacterial activity, agar-dilution MIC, organism No. 27; conditions: Enterococcus faecium, IFO3826; Organism No. 27, bouillon-agar; read-out: Minimum Inhibitory Concentration
In short: as §1

[22] = tested on: Proteus mirabilis IFO 3849; assay: Antibacterial activity, agar-dilution MIC, organism No. 19; conditions: Proteus mirabilis, IFO3849; Organism No. 19, bouillon-agar; read-out: Minimum Inhibitory Concentration
In short: as §1

[23] = tested on: Bacillus subtilis ATCC 6633; assay: Antibacterial activity, agar-dilution MIC, organism No. 14; conditions: Bacillus subtilis, ATCC6633; Organism No. 14, bouillon-agar; read-out: Minimum Inhibitory Concentration
In short: as §1

[24] = tested on: Proteus rettgeri IFO 3850; assay: Antibacterial activity, agar-dilution MIC, organism No. 22; conditions: Providencia rettgeri, IFO3850; Organism No. 22, bouillon-agar; read-out: Minimum Inhibitory Concentration
In short: as §1

[25] = tested on: Salmonella shottmuelleri 8006; assay: Antibacterial activity, agar-dilution MIC, organism No. 11; conditions: Salmonella, 8006; Organism No. 11, bouillon-agar; read-out: Minimum Inhibitory Concentration
In short: as §1

[26] = tested on: Serratia marcescens IAM 1184; assay: Antibacterial activity, agar-dilution MIC, organism No. 13; conditions: Serratia marcescens, IAM1184; Organism No. 13, bouillon-agar; read-out: Minimum Inhibitory Concentration
In short: as §1

[C-]#[N+]C12CC3(/C=C/C(=O)Nc4ccc(C(C)=O)cc4)OC3C1O2 (stereo not drawn) [compound 80]
MIC [1]: 1.56 µg/mL (≈ 5.03 µM) | MIC [2]: > 200 µg/mL | MIC [3]: 1.56 µg/mL (≈ 5.03 µM) | MIC [4]: < 0.2 µg/mL | MIC [5]: > 200 µg/mL | MIC [6]: 100 µg/mL (≈ 322 µM) | MIC [7]: 6.25 µg/mL (≈ 20.1 µM) | MIC [8]: 0.78 µg/mL (≈ 2.51 µM) | MIC [9]: > 200 µg/mL | MIC (Proteus vulgaris HX-19): 1.56 µg/mL (≈ 5.03 µM) | MIC [10]: 12.5 µg/mL (≈ 40.3 µM) | MIC [11]: > 200 µg/mL | MIC (Enterobacter cloacae 963): > 200 µg/mL | MIC (Salmonella typhi 901): 12.5 µg/mL (≈ 40.3 µM) | MIC [12]: 6.25 µg/mL (≈ 20.1 µM) | MIC [13]: > 200 µg/mL | MIC [14]: > 200 µg/mL | MIC [15]: 3.13 µg/mL (≈ 10.1 µM) | MIC (Proteus vulgaris OX-19): 1.56 µg/mL (≈ 5.03 µM) | MIC [16]: 0.39 µg/mL (≈ 1.26 µM) | MIC [17]: 3.13 µg/mL (≈ 10.1 µM) | MIC [18]: 0.39 µg/mL (≈ 1.26 µM) | MIC [19]: > 200 µg/mL | MIC [20]: 3.13 µg/mL (≈ 10.1 µM) | MIC [21]: 1.56 µg/mL (≈ 5.03 µM) | MIC [22]: > 200 µg/mL | MIC [23]: 6.25 µg/mL (≈ 20.1 µM) | MIC [24]: > 200 µg/mL | MIC [25]: 3.13 µg/mL (≈ 10.1 µM) | MIC [26]: > 200 µg/mL

[C-]#[N+]C12CC3(/C=C/C(=O)NOC)OC3C1O2 (stereo not drawn) [compound 81]
MIC [1]: 25 µg/mL (≈ 113 µM) | MIC [2]: 12.5 µg/mL (≈ 56.3 µM) | MIC [3]: 200 µg/mL (≈ 900 µM) | MIC [4]: < 0.2 µg/mL | MIC [5]: > 200 µg/mL | MIC [6]: 12.5 µg/mL (≈ 56.3 µM) | MIC [7]: 25 µg/mL (≈ 113 µM) | MIC [8]: 12.5 µg/mL (≈ 56.3 µM) | MIC [9]: > 200 µg/mL | MIC (Proteus vulgaris HX-19): 6.25 µg/mL (≈ 28.1 µM) | MIC [10]: 6.25 µg/mL (≈ 28.1 µM) | MIC [11]: 200 µg/mL (≈ 900 µM) | MIC (Enterobacter cloacae 963): > 200 µg/mL | MIC (Salmonella typhi 901): 6.25 µg/mL (≈ 28.1 µM) | MIC [12]: 25 µg/mL (≈ 113 µM) | MIC [13]: 100 µg/mL (≈ 450 µM) | MIC [14]: 200 µg/mL (≈ 900 µM) | MIC [15]: 6.25 µg/mL (≈ 28.1 µM) | MIC (Proteus vulgaris OX-19): 50 µg/mL (≈ 225 µM) | MIC [16]: 25 µg/mL (≈ 113 µM) | MIC [17]: 6.25 µg/mL (≈ 28.1 µM) | MIC [18]: 12.5 µg/mL (≈ 56.3 µM) | MIC [19]: 12.5 µg/mL (≈ 56.3 µM) | MIC [20]: 6.25 µg/mL (≈ 28.1 µM) | MIC [21]: 12.5 µg/mL (≈ 56.3 µM) | MIC [22]: 100 µg/mL (≈ 450 µM) | MIC [23]: 50 µg/mL (≈ 225 µM) | MIC [24]: 100 µg/mL (≈ 450 µM) | MIC [25]: 12.5 µg/mL (≈ 56.3 µM) | MIC [26]: 200 µg/mL (≈ 900 µM)
